Measurements as given in publication PMC5030359, “Cathelicidin Antimicrobial Peptides with Reduced Activation of Toll-Like Receptor Signaling Have Potent Bactericidal Activity against Colistin-Resistant Bacteria” (mBio, 2016).
Values after ≈ are worked out from the molar mass of the structure shown. Peptide text beside a SMILES is read from it.

Experiments:
V. fischeri = assay: Bacterial killing, colony formation (CFU); assay type: cell-based; conditions: 2 µM peptide, 30 min incubation
V. angustum = assay: Bacterial killing, colony formation (CFU); assay type: cell-based; conditions: 2 µM peptide, 30 min incubation
K. pneumoniae = assay: Bacterial killing, colony formation (CFU); assay type: cell-based, Klebsiella pneumoniae
Procedure: A total of 1 × 10^5 CFU of the bacteria were incubated for 30 min with the concentration of peptide or colistin shown. Approximately 500 CFU was then added as a droplet onto nonselective media for 18 h. […] The number shown is the median value of three or four independent assays. The number in parentheses is the standard deviation of all of the assays. […] (C) Quantitative analysis of the viable colonies formed by colistin-resistant bacteria. […] The numbers are the means of three independent assays, and those in parentheses are the range for 1 standard deviation.

E. cloacae 4080 = assay: Bacterial killing, colony formation (CFU); assay type: cell-based, Enterobacter cloacae
Procedure: The number of CFU of E. cloacae 4080 were quantified as a function of time of incubation with a 2 µM concentration of the individual peptides. In the reactions with kanamycin (Kan), 25 µg/ml of kanamycin sulfate was used. […] The initial inoculum was 10^6 CFU in LB.

E. coli = assay type: cell-based, Escherichia coli; conditions: 2 µM peptide
Procedure: A total of 1 × 10^5 CFU of the bacteria were incubated for 30 min with the concentration of peptide or colistin shown. Approximately 500 CFU was then added as a droplet onto nonselective media for 18 h. […] The number shown is the median value of three or four independent assays. The number in parentheses is the standard deviation of all of the assays. […] The numbers are the means of three independent assays, and those in parentheses are the range for 1 standard deviation.
Incubation time: 0 min 5 min 30 min

V. vulnificus = assay type: cell-based, Vibrio vulnificus; conditions: 5 min with 100 µM ampicillin or 4 µM SMAP-29D, relative to PBS control cells
Procedure: (§1) The number of CFU of E. cloacae 4080 were quantified as a function of time of incubation with a 2 µM concentration of the individual peptides. In the reactions with kanamycin (Kan), 25 µg/ml of kanamycin sulfate was used. […] The initial inoculum was 10^6 CFU in LB. […] (D to F) Fluorescence microscopy of V. vulnificus cells. […] An enlarged image of a single cell is highlighted in the boxed region. White arrows denote bulges extending from the bacterial membrane. […] Bacterial DNA is stained with DAPI (blue). […] The fate of cellular cytoplasmic contents was tracked following expression of a FliM-tdTomato fusion protein (red).

V. cholerae = assay type: cell-based, Vibrio cholerae; conditions: 5 min with 100 µM ampicillin or 4 µM SMAP-29D, relative to PBS control cells
Procedure: as §1

[1] = broth microdilution, CAMHB, at least three independent assays
[2] = 2 µM peptide, 30 min incubation

Procedure for 19 Gram-negative strains: (A) Sequences of the cathelicidins, the numbers of bacterial strains killed, and hRBC lysis by the cathelicidins. […] The bacterial species tested are Klebsiella pneumoniae (K. p.), Serratia marcescens (S. m.), Enterobacter cloacae (E. cl.), Escherichia coli (E. c.), and Pseudomonas aeruginosa (P. a.). MICs were determined by the microdilution assay. […] The results are the median values of at least three independent assays.
We tested a panel of cathelicidins for inhibiting growth of 19 Gram-negative strains from the family Enterobacteriaceae and the nonfermentative bacteria. The species tested were Enterobacter cloacae ([2]), Escherichia coli ([5]), Klebsiella pneumoniae ([4]), Pseudomonas aeruginosa ([4]), and Serratia marcescens ([4]). All of the strains selected have been characterized for their antibiotic resistance profiles.
(§2) Antimicrobial activity was determined using the broth microdilution method based on the guidelines of the Clinical and Laboratory Standards Institute (CLSI) ([39]), using cation-adjusted Mueller-Hinton broth (CAMHB) as the testing medium. Reference Gram-positive and Gram-negative bacteria were tested, including both enteric and Pseudomonas aeruginosa strains. Each MIC was determined in at least three independent assays.
Procedure for E. faecalis: as §2
Procedure for Enterobacter cloacae: (§3) The bacterial species tested are Klebsiella pneumoniae (K. p.), Serratia marcescens (S. m.), Enterobacter cloacae (E. cl.), Escherichia coli (E. c.), and Pseudomonas aeruginosa (P. a.). MICs were determined by the microdilution assay. […] The results are the median values of at least three independent assays.
as §2
Procedure for Escherichia coli: as §3, §2
Procedure for Klebsiella pneumoniae: as §3, §2
Procedure for Pseudomonas aeruginosa: as §3, §2
Procedure for S. aureus: as §2
Procedure for Serratia marcescens: as §3, §2

CC[C@H](C)[C@H](NC(=O)[C@@H](NC(=O)[C@@H]1CCCN1C(=O)[C@H](CO)NC(=O)[C@H](CC(C)C)NC(=O)[C@H](CCCCN)NC(=O)[C@H](CCCCN)NC(=O)[C@H](Cc1ccccc1)NC(=O)[C@H](CC(C)C)NC(=O)[C@H](CCCCN)NC(=O)[C@H](CCCCN)NC(=O)[C@H](CC(C)C)NC(=O)[C@H](CCCCN)NC(=O)[C@H](CCCCN)NC(=O)[C@H](CCCNC(=N)N)NC(=O)[C@H](CC(C)C)NC(=O)[C@H](CCCNC(=N)N)NC(=O)[C@H](CCCCN)NC(=O)[C@H](Cc1ccccc1)NC(=O)[C@H](CCCNC(=N)N)NC(=O)CN)C(C)C)C(=O)N1CCC[C@H]1C(=O)N[C@@H](CC(C)C)C(=O)N[C@@H](CC(C)C)C(=O)N[C@@H](Cc1c[nH]cn1)C(=O)N[C@@H](CC(C)C)C(=O)NCC(=O)O [BMAP-27B] (H-GRFKRLRKKLKKLFKKLSPVIPLLHLG-OH)
CFU/ml (SD) V. fischeri, 30 min (V. fischeri): < 20 CFU/ml
Fold redu. from To, V. fischeri, 30 min (V. fischeri): > 48,000 fold
MIC S. aureus 25923 (S. aureus): 32 mg/L (≈ 9.95 µM)
MIC S. aureus 29213 (S. aureus): 32 mg/L (≈ 9.95 µM)
CFU/ml (SD) V. angustum, 30 min (V. angustum): 27 CFU/ml
Fold redu. from To, V. angustum, 30 min (V. angustum): > 88,460 fold
# strains inhibited at 16 µg/ml peptide P. a. (Pseudomonas aeruginosa): 4/4
MIC P. aeruginosa 4083 (Pseudomonas aeruginosa): 4 mg/L (≈ 1.24 µM)
MIC P. aeruginosa PAO1 (Pseudomonas aeruginosa): 4 mg/L (≈ 1.24 µM)
MIC P. aeruginosa PAO1 ΔOprD (Pseudomonas aeruginosa; [1]): 4 mg/L (≈ 1.24 µM)
# strains inhibited at 16 µg/ml peptide S. m. (Serratia marcescens): 3/3
# strains inhibited at 16 µg/ml peptide E. c. (Escherichia coli): 6/6
MIC E. coli MC4100 (Escherichia coli; [1]): 4 mg/L (≈ 1.24 µM)
MIC E. faecalis 29212 (E. faecalis): >32 mg/L
MIC E. faecalis 51299 (E. faecalis): >32 mg/L
CFU/ml (SD) K. pneumonia 8893, 5 min (K. pneumoniae; 2 µM peptide, 5 min incubation): < 200 CFU/ml
Fold redu. from To, K. pneumonia 8893, 5 min (K. pneumoniae; 2 µM peptide, 5 min incubation): 1050 fold
Fold redu. from To, K. pneumonia C-2, 5 min (K. pneumoniae; 2 µM peptide, 5 min incubation): 25 fold
CFU/ml (SD) K. pneumonia 8893, 30 min (K. pneumoniae; [2]): < 25 CFU/ml
CFU/ml (SD) K. pneumonia C-2, 30 min (K. pneumoniae; [2]): 50 CFU/ml
Fold redu. from To, K. pneumonia 8893, 30 min (K. pneumoniae; [2]): > 8,400 fold
Fold redu. from To, K. pneumonia C-2, 30 min (K. pneumoniae; [2]): > 13,000 fold
reduction in CFU, colistin-resistant K. pneumoniae (K. pneumoniae; 2 µM, Fig. 5C (K. pneumoniae 59) and data not shown): > 2 log10 unit
No. of strains inhibited at 16 µg/ml/total no. of strains (19 Gram-negative strains): 19/19
# strains inhibited at 16 µg/ml peptide E. cl. (Enterobacter cloacae): 2/2
MIC E. cloacae 4092 (Enterobacter cloacae; [1]): 4 mg/L (≈ 1.24 µM)
# strains inhibited at 16 µg/ml peptide K. p. (Klebsiella pneumoniae): 4/4
Fold redu. from To, En. cloacae 4080, 5 min (E. cloacae 4080): 2400
Fold redu. from To, En. cloacae 4080, 30 min (E. cloacae 4080): > 19,200
CFU/ml (SD) En. cloacae 4080, 5 min (E. cloacae 4080; 2 µM peptide (sub-heading; title says 1 µM), 5 min incubation): < 200 CFU/ml
reduction in CFU, 120 min (E. cloacae 4080; 2 µM peptide, 120-min incubation, E. cloacae): > 4 log10 unit
CFU/ml (SD) En. cloacae 4080, 30 min (E. cloacae 4080; [2]): < 25 CFU/ml
CFU/ml (SD) E. coli IU-342, 5 min (E. coli; 5 min incubation): < 200 CFU/ml
Fold redu. from To, E. coli IU-342, 5 min (E. coli; 5 min incubation): 850 fold
CFU/ml (SD) E. coli IU-342, 30 min (E. coli; 30 min incubation): < 25 CFU/ml
Fold redu. from To, E. coli IU-342, 30 min (E. coli; 30 min incubation): > 6,800 fold

CC1(C)S[C@@H]2[C@H](NC(=O)[C@H](N)c3ccccc3)C(=O)N2[C@H]1C(=O)O [ampicillin]
reduction in CFU, V. vulnificus (V. vulnificus): less than 1 log10 unit
reduction in CFU, V. cholerae (V. cholerae): less than 1 log10 unit
